The structures appear in SMILES notation.

A word on the IC50: it is the concentration needed to halve the response being measured. A high value points to a need for much substance.

Sequence of wild type c-kit (P10721 26-976): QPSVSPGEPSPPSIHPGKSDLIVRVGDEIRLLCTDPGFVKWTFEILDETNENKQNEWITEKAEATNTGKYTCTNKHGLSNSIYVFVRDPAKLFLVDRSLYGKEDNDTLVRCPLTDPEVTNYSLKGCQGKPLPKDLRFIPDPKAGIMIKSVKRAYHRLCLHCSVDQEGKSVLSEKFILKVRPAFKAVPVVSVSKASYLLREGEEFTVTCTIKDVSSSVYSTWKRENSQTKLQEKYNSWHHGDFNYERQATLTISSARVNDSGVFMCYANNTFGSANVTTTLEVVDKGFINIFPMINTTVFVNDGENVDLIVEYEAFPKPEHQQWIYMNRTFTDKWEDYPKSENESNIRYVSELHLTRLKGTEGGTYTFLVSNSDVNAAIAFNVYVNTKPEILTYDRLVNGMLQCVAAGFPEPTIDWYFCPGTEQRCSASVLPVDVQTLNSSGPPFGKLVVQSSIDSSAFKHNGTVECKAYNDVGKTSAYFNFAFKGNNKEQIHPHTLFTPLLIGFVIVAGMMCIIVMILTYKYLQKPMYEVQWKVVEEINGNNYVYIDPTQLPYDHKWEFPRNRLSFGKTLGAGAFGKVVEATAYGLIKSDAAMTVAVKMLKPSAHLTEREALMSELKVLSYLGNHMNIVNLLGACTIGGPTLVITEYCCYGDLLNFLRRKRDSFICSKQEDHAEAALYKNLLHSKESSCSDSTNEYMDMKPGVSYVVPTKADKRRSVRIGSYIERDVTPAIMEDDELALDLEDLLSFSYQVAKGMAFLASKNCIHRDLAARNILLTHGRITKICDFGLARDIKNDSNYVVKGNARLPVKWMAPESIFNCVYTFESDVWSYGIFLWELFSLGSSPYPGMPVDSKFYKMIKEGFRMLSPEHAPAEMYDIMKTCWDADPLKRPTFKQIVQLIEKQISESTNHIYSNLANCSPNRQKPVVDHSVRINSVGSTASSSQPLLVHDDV

This assay addresses wild type c-kit (Homo sapiens (Human), UniProt P10721). The assay is described as follows: PathScan phospho c-kit (Tyr719) sandwich ELISA in SCF-stimulated M-07e cells (pKIT assay). The note with it: ELISA assay (values not marked *). Type of assay: cell-based. The method in brief:
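Serum- and GM-CSF-starved M-07e cells (4 h) pretreated 60 min at 37 °C with an 8-point compound series in duplicate (0.25% DMSO), then stimulated with human SCF (500 ng/mL stock) 10 min at room temperature. Lysate c-kit Tyr719 phosphorylation quantified by sandwich ELISA with TMB read-out; IC50 from 4-parameter logistic fit.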
`Cc1ccc(-c2nnn(C3CN(S(=O)(=O)CCCCC#N)C3)n2)cc1NC(=O)c1cnn2ccccc12` [Example 186, N-(5-(2-(1-((4-cyanobutyl)sulfonyl)azetidin-3-yl)-2H-tetrazol-5-yl)-2-methylphenyl)pyrazolo[1,5-a]pyridine-3-carboxamide]: the IC50 came to 103 nM.

Molecule `Cc1c(-c2ccn3ncc(C(=O)Nc4cc(-c5nnn(C6CC6)n5)c(F)cc4Cl)c3c2)cnn1C[C@H](C)O` [Example 264, (S)-N-(2-chloro-5-(2-cyclopropyl-2H-tetrazol-5-yl)-4-fluorophenyl)-5-(1-(2-hydroxypropyl)-5-methyl-1H-pyrazol-4-yl)pyrazolo[1,5-a]pyridine-3-carboxamide] had an IC50 of 0.5 nM.

Regarding `COC(=O)N1CC(n2nnc(-c3ccc(C)c(NC(=O)c4cnn5ccc(N(C)C)cc45)c3)n2)C1` [Example 132, methyl 3-(5-(3-(5-(dimethylamino)pyrazolo[1,5-a]pyridine-3-carboxamido)-4-methylphenyl)-2H-tetrazol-2-yl)azetidine-1-carboxylate], the half-maximal inhibitory concentration (IC50) came to 21.4 nM.

Take `Cc1ccc(-c2cnn(C3CC3)n2)cc1NC(=O)c1cnn2ccccc12` [Example 29, N-(5-(2-cyclopropyl-2H-1,2,3-triazol-4-yl)-2-methylphenyl)pyrazolo[1,5-a]pyridine-3-carboxamide]: 11.1 nM corresponded to half-maximal inhibition (IC50). The molecule `Cc1ccc(-c2nnn(C3CC(F)(F)C3)n2)cc1NC(=O)c1cnn2ccc(N3CC(O)C3)cc12` [Example 60, N-(5-(2-(3,3-difluorocyclobutyl)-2H-tetrazol-5-yl)-2-methylphenyl)-5-(3-hydroxyazetidin-1-yl)pyrazolo[1,5-a]pyridine-3-carboxamide] returned an IC50 of 1.8 nM.

Take `O=C(Nc1cc(-c2nnn(C3CC(F)(F)C3)n2)ccc1Cl)c1cnn2ccccc12` [Example 17, N-(2-chloro-5-(2-(3,3-difluorocyclobutyl)-2H-tetrazol-5-yl)phenyl)pyrazolo[1,5-a]pyridine-3-carboxamide]: the IC50 came to 6.5 nM. On to `Cc1nn(C(CO)CO)c(C)c1-c1ccn2ncc(C(=O)Nc3cc(-c4nnn(C5CC5)n4)ccc3Cl)c2c1` [Example 276, N-(2-chloro-5-(2-cyclopropyl-2H-tetrazol-5-yl)phenyl)-5-(1-(1,3-dihydroxypropan-2-yl)-3,5-dimethyl-1H-pyrazol-4-yl)pyrazolo[1,5-a]pyridine-3-carboxamide], for which the IC50 is 0.3 nM. `CNc1ccn2ncc(C(=O)Nc3cc(-c4nnn(C5CN(C(=O)OC)C5)n4)ccc3C)c2c1` [Example 133, methyl 3-(5-(4-methyl-3-(5-(methylamino)pyrazolo[1,5-a]pyridine-3-carboxamido)phenyl)-2H-tetrazol-2-yl)azetidine-1-carboxylate]: half-maximal inhibition (IC50) required 34.5 nM. In turn, `Cc1cc(F)c(NC(=O)c2cnn3ccc(-c4cnn(CC(C)(C)O)c4)cc23)cc1-c1nnn(C2CC2)n1` [Example 215, N-(5-(2-cyclopropyl-2H-tetrazol-5-yl)-2-fluoro-4-methylphenyl)-5-(1-(2-hydroxy-2-methylpropyl)-1H-pyrazol-4-yl)pyrazolo[1,5-a]pyridine-3-carboxamide] displayed an IC50 of 23.7 nM. `CCNc1ccn2ncc(C(=O)Nc3cc(-n4ncc(C5CN(C(=O)OC)C5)n4)ccc3C)c2c1` [Example 137, methyl 3-(2-(3-(5-(ethylamino)pyrazolo[1,5-a]pyridine-3-carboxamido)-4-methylphenyl)-2H-1,2,3-triazol-4-yl)azetidine-1-carboxylate] registered a 50% inhibitory concentration (IC50) of 16.8 nM.

In the case of `Cc1ccc(-c2nnn(C3CC(F)(F)C3)n2)cc1NC(=O)c1cnn2ccc(NCC(F)(F)CO)cc12` [Example 102, 5-((2,2-difluoro-3-hydroxypropyl)amino)-N-(5-(2-(3,3-difluorocyclobutyl)-2H-tetrazol-5-yl)-2-methylphenyl)pyrazolo[1,5-a]pyridine-3-carboxamide], the IC50 was found to be 2.6 nM. The figure for `Cc1ccc(-c2nnn(CC3CC4(CC4)CO3)n2)cc1NC(=O)c1cnn2ccccc12` (stereo not drawn) [Example 10, N-(5-(2-((5-oxaspiro[2.4]heptan-6-yl)methyl)-2H-tetrazol-5-yl)-2-methylphenyl)pyrazolo[1,5-a]pyridine-3-carboxamide] is 3.8 nM; for `CCn1nnc(-c2cc(NC(=O)c3cnn4ccc(-c5cn(CC(C)(C)O)nc5C)cc34)c(Cl)cc2F)n1` [Example 265, N-(2-chloro-5-(2-ethyl-2H-tetrazol-5-yl)-4-fluorophenyl)-5-(1-(2-hydroxy-2-methylpropyl)-3-methyl-1H-pyrazol-4-yl)pyrazolo[1,5-a]pyridine-3-carboxamide] it is 0.8 nM; for `CCn1nnc(-c2ccc(C)c(NC(=O)c3cnn4ccccc34)c2)n1` [Example 14, N-(5-(2-ethyl-2H-tetrazol-5-yl)-2-methylphenyl)pyrazolo[1,5-a]pyridine-3-carboxamide] it is 28.6 nM. In turn, `COC(=O)N1CC(n2nnc(-c3ccc(C)c(NC(=O)c4cnn5ccc(N6CCO[C@H](CO)C6)cc45)c3)n2)C1` [Example 68, methyl (S)-3-(5-(3-(5-(2-(hydroxymethyl)morpholino)pyrazolo[1,5-a]pyridine-3-carboxamido)-4-methylphenyl)-2H-tetrazol-2-yl)azetidine-1-carboxylate] yielded an IC50 of 61.3 nM. The figure for `Cc1ccc(-n2ncc(C3CC(F)(F)C3)n2)cc1NC(=O)c1cnn2ccccc12` [Example 161, N-(5-(4-(3,3-difluorocyclobutyl)-2H-1,2,3-triazol-2-yl)-2-methylphenyl)pyrazolo[1,5-a]pyridine-3-carboxamide] is 9 nM; for `Cn1nnc(-c2ccc(Cl)c(NC(=O)c3cnn4ccc(-c5cnn(CC(C)(C)O)c5)cc34)c2)n1` [Example 210, N-(2-chloro-5-(2-methyl-2H-tetrazol-5-yl)phenyl)-5-(1-(2-hydroxy-2-methylpropyl)-1H-pyrazol-4-yl)pyrazolo[1,5-a]pyridine-3-carboxamide] it is 7.4 nM. `COC(=O)N1CC(n2nnc(-c3ccc(C)c(NC(=O)c4cnn5ccc(N6CCO[C@@H](CO)C6)cc45)c3)n2)C1` [Example 91, methyl (R)-3-(5-(3-(5-(2-(hydroxymethyl)morpholino)pyrazolo[1,5-a]pyridine-3-carboxamido)-4-methylphenyl)-2H-tetrazol-2-yl)azetidine-1-carboxylate] yielded an IC50 of 50.9 nM. For `Cc1nnn(-c2ccc(Cl)c(NC(=O)c3cnn4ccc(-c5cnn(CC(C)(C)O)c5)cc34)c2)n1` [Example 212, N-(2-chloro-5-(5-methyl-2H-tetrazol-2-yl)phenyl)-5-(1-(2-hydroxy-2-methylpropyl)-1H-pyrazol-4-yl)pyrazolo[1,5-a]pyridine-3-carboxamide], the IC50 came out at 5.6 nM. On to `O=C(Nc1cc(-c2nnn(C3CC(F)(F)C3)n2)c(C2CC2)cc1Cl)c1cnn2ccc(N3CCOCC3)cc12` [Example 117, N-(2-chloro-4-cyclopropyl-5-(2-(3,3-difluorocyclobutyl)-2H-tetrazol-5-yl)phenyl)-5-morpholinopyrazolo[1,5-a]pyridine-3-carboxamide], for which the half-maximal inhibitory concentration (IC50) was 52.7 nM. The molecule `COCCNc1ccn2ncc(C(=O)Nc3cc(-c4nnn(C5CN(C(=O)OC)C5)n4)ccc3C)c2c1C` [Example 45, methyl 3-(5-(3-(5-((2-methoxyethyl)amino)-4-methylpyrazolo[1,5-a]pyridine-3-carboxamido)-4-methylphenyl)-2H-tetrazol-2-yl)azetidine-1-carboxylate] returned an IC50 of 70.2 nM.

Source of the values: patent US20240262826A1, “WILD TYPE KIT INHIBITORS” (Blueprint Medicines Corporation, priority 2022, published 2024).
